Our source for the EC50 and melting point values is patent US20120189579A1 (priority 2009, published 2012).

As a reminder, the EC50 is the concentration giving half of the maximal effect. One may read the melting point as the temperature, or range, at which the solid turns liquid.

Data set [1] concerns the target T1, HCV NS5BΔ21/Gal4-DBD fusion protein (Hepatitis C virus genotype 1b, UniProt Q9WMX2).
T1 construct: The protein was expressed with a 21 amino acid C-terminal deletion to remove transmembrane domain; expressed in transfected cells; host or cells: Huh-7 (transient transfection)
The experiment in a line: 3D-SCREEN assay (NS5B reporter gene assay in Huh-7 cells). It counts as cell-based, HCV genotype 1b. The procedure: (§1) Human Hepatoma Huh-7 cell line was maintained in DMEM/HAMF-12 supplemented with 10% SVF, 4 mM glutamine, […] Na pyruvate, 1% penistreptomycine. HCV replicon containing Huh-7 cell lines Huh-9.13 and Luc Neo ET (Reblikon) were maintained in DMEM supplemented with 10% SVF, 2 mM glutamine, and 1×NEAA, 100 U/ml penicillin, and 100 μg/ml streptomycine. Replicon cells were maintained in medium supplemented with 1 mg/ml G418 for replicon Huh-9.13 and 0.5 mg/ml for Luc Neo et replicon unless indicated otherwise. Huh-7 and HCV replicon cell lines were maintained at 37° C. and 5% CO2 in a humidified atmosphere. Cells were dissociated at sub confluence with trypsin EDTA 1×.
cDNA encoding HCV NS5B genotype 1b, was cloned in frame with Gal4-DNA Binding Domain. The protein was expressed with a 21 amino acid C-terminal deletion to remove transmembrane domain. Expression of NS5BΔ21/Gal4 DBD fusion protein was under control of SV40 early promoter. 3D-Sensor peptide was cloned in frame with VP16 activation domain. Expression of 3D-Sensor/VP16 AD fusion protein was under control of CMV promoter. Expression of the firefly luciferase reporter gene was inducible by the [Target protein/conformation sensitive peptide/VP16AD] complex.
It is a single-target, cell based assay. Briefly, expression of a reporter gene depends on the interaction of a short peptide, thereafter named 3D-Sensor, and native conformation of the target protein. Whenever the conformation of the target protein is modified, interaction between 3D-sensor and target protein is disrupted and reporter gene is not expressed anymore. Conformation modifiers are identified by loss of expression of reporter gene. NS5B 3D-Screen platform was generated in Huh-7 cell lines by transient transfection of three expression vectors encoding respectively • (i) HCV NS5BΔ21/Gal4-DBD fusion protein • (ii) the 3D-sensor peptide 14/VP16 fusion protein • (iii) the firefly luciferase reporter gene
Huh-7 cells were dissociated the day before transfection and seeded in T175 flasks at a density of 10^7 cells in 30 ml culture medium. Equimolar ratios of vectors were transfected in cell according to optimized jetPEI transfection protocol (PolyPlus Transfection, Illkirch, France) and 10 μg total DNA/10^6 cells. Transfection was performed for 2 hours at 37° C. and 5% CO2 in a humidified atmosphere. After two hours cells were dissociated and seeded in 96 wells plates at a density of 25,000 cells per well and 90 μl culture medium. 10 μl of compounds to be tested were added 2 hours after seeding. Final concentration of DMSO was 1%. Cells were incubated in the presence of compounds for 24 hours after which expression of firefly luciferase reporter gene was quantified. Briefly, culture medium was removed and cells were lysed by addition of 100 μl of lysis buffer containing 125 mM Tris Phosphate ph 7.8, 10 mM EDTA, 5 mM DTT, 50% glycerol and 5% Triton. Plates were vortexed 10 min at 1300 rpm. Cell lysat was transferred in OpaqueWhite Assay 96 well Flat Bottom plates. 100 μl of luciferin solution 1× were added to each well. Luciferin solution contained 40 mM Tris Phosphate ph 7.8, 0.2 mM EDTA, 67 mM DTT, 2.14 mM MgCl2, 5.4 mM MgSO4, 4.7×10^−4 M luciferin, 5.3×10^−4 M ATP and 2.7×10^−4 M Acetyl co enzyme A. Luminescence was immediately measured with Berthold Microlumat Plus LB 96V luminometer with an integration of 0.5 sec. Inhibition was calculated using the formula: % inhibition=(1−(read/average max))*100. Average max=signal in absence of compound

The test system of data set [2] is HCV replicon Luc Neo ET in Huh-7 cells. The experiment in a line: Replicon assay (Luc Neo ET replicon). It counts as cell-based. To be noted: Hepatitis C virus, 72 hours with compound, firefly luciferase reporter, read-out: EC50—Replicon LucneoET. The procedure:
as §1
Replicon Luc Neo ET is a bicistronic expression constructs (Lohmann et al, 1999, Science 285, 110-113). In brief, the structural genes of the HCV genome were replaced by heterologous sequences; the gene encoding the neomycin phosphotransferase (NPT) and the internal ribosome entry site (IRES) of the encephalomyocarditis virus (EMCV). The bicistronic construct is therefore composed of the following elements: HCV-IRES nucleotides 1-389, the NPT gene, the EMCV-IRES directing translation of downstream HCV sequences from NS2 or NS3 up to the authentic 3′ end of the genome. HCV Polyprotein harbours the cell culture adaptive mutations E1202G, T1280I, K1846T. G418-resistance is only possible with cells containing high amounts of replicon.
Cells were dissociated the day before addition of compounds and seeded in 96 well-plates at a final concentration of 77 777.77 cells·ml^−1·well^−2 in 90 μl final volume of culture medium per well and were maintained at 37° C. and 5% CO2 in a humidified atmosphere for 24 hours. 10 μl of compounds to be tested were added 24 hours after seeding. Final concentration of DMSO was 1%. Cells were incubated in the presence of compounds for 72 hours after which expression of firefly luciferase reporter gene was quantified. Briefly, culture medium was removed and cells were lysed by addition of 100 μl of lysis buffer containing 125 mM Tris Phosphate ph 7.8, 10 mM EDTA, 5 mM DTT, 50% glycerol and 5% Triton. Plates were vortexed 10 min at 1300 rpm. Cell lysat was transferred in OpaqueWhite Assay 96 well Flat Bottom plates. 100 μl of luciferin solution 1× were added to each well. Luciferin solution contained 40 mM Tris Phosphate ph 7.8, 0.2 mM EDTA, 67 mM DTT, 2.14 mM MgCl2, 5.4 mM MgSO4, 4.7×10^−4 M luciferin, 5.3×10^−4 M ATP and 2.7×10^−4 M Acetyl co enzyme A. Luminescence was immediately measured with Berthold Microlumat Plus LB 96V luminometer with an integration of 0.5 sec Inhibition was calculated using the formula:
% inhibition=1−[(RLUsample−RLUbackground)/(RLUsignal−RLUbackground)]
Background: A replicon is a self-replicating genome or part of one, used to study replication in cells.

With `Cc1ccc(C(=O)C2=C(O)C(=O)N(c3ncc(S(=O)(=O)c4ccc([N+](=O)[O-])cc4)s3)C2c2ccc(C(C)C)cc2)cc1` (centres unmarked) [Example 10], the results for the 50% effective concentration (EC50) in data set [1] and in data set [2] were 2 µM and 8 µM, respectively. The corresponding values for `Cc1ccc(C(=O)C2=C(O)C(=O)N(c3nnc(C)s3)C2c2ccc(C(C)C)cc2)cc1` (centres unmarked) [Example 54] are 13 µM and 11 µM. Turning to `CN(C)c1ccc(C(=O)C2=C(O)C(=O)N(c3ncc(S(=O)(=O)c4ccc([N+](=O)[O-])cc4)s3)C2c2ccc(C(C)(C)C)cc2)cc1` (centres unmarked) [Example 55, 5-(4-tert-butyl-phenyl)-4-(4-dimethylamino-benzoyl)-3-hydroxy-1-[5-(4-nitro-benzenesulfonyl)-thiazol-2-yl]-1,5-dihydro-pyrrol-2-one], the EC50 turned out to be 4 µM in data set [1] and 7 µM in data set [2]. With `O=C(O)c1ccc(C2C(C(=O)c3ccco3)=C(O)C(=O)N2c2ncc(S(=O)(=O)c3ccc([N+](=O)[O-])cc3)s2)cc1` (centres unmarked) [Example 112, 4-{3-(furan-2-carbonyl)-4-hydroxy-1-[5-(4-nitro-benzenesulfonyl)-thiazol-2-yl]-5-oxo-2,5-dihydro-1H-pyrrol-2-yl}-benzoic acid], the EC50 in data set [1] and in data set [2] was < 10 µM each time.

As for `CC(C)c1ccc(C(=O)C2=C(O)C(=O)N(c3ncc(S(=O)(=O)c4ccc([N+](=O)[O-])cc4)s3)C2c2ccc(C(F)(F)F)cc2)cc1` (centres unmarked) [Example 126, 3-hydroxy-4-(4-isopropyl-benzoyl)-1-[5-(4-nitro-benzenesulfonyl)-thiazol-2-yl]-5-(4-trifluoromethyl-phenyl)-1,5-dihydro-pyrrol-2-one], the melting point was 300 to 302 °C. The EC50 in data set [1] is < 10 µM. For `COc1ccc(C(=O)C2=C(O)C(=O)N(c3nnc(C)s3)C2c2ccc(Cl)c(Cl)c2)cc1` (centres unmarked) [Example 31], the concentration giving a half-maximal response (EC50) in data set [2] was found to be 33 µM. `Cc1ccc(C(=O)C2=C(O)C(=O)N(c3ncc(S(=O)(=O)N4CCOCC4)s3)C2c2ccc(C(C)C)cc2)cc1` (centres unmarked) [Example 41, 3-hydroxy-5-(4-isopropyl-phenyl)-4-(4-methyl-benzoyl)-1-[5-(morpholine-4-sulfonyl)-thiazol-2-yl]-1,5-dihydro-pyrrol-2-one] yielded a melting point of 247 to 252 °C. In data set [1], the concentration giving a half-maximal response (EC50) is 16.3 µM. For `CCc1ccc(C2C(C(=O)c3ccco3)=C(O)C(=O)N2c2ncc(S(=O)(=O)c3ccc([N+](=O)[O-])cc3)s2)cc1` (centres unmarked) [Example 104, 5-(4-ethyl-phenyl)-4-(furan-2-carbonyl)-3-hydroxy-1-[5-(4-nitro-benzenesulfonyl)-thiazol-2-yl]-1,5-dihydro-pyrrol-2-one], the EC50 in data set [1] and in data set [2] was < 10 µM each time. Compound `Cc1ccc(C(=O)C2=C(O)C(=O)N(c3ncc(S(=O)(=O)N(C)C)s3)C2c2ccc(C(C)C)cc2)cc1` (centres unmarked) [Example 39, 2-[3-hydroxy-5-(4-isopropyl-phenyl)-4-(4-methyl-benzoyl)-2-oxo-2,5-dihydro-pyrrol-1-yl]-thiazole-5-sulfonic acid dimethylamide] gave a melting point of 237 to 241 °C. In data set [1], this compound registered a half-maximal effective concentration (EC50) of 16 µM. `COc1ccc(C(=O)C2=C(O)C(=O)N(c3nnc(C(C)C)s3)C2c2ccc(C(C)(C)C)cc2)cc1` (centres unmarked) [Example 35, 5-(4-tert-butyl-phenyl)-3-hydroxy-1-(5-isopropyl-[1,3,4]thiadiazol-2-yl)-4-(4-methoxy-benzoyl)-1,5-dihydro-pyrrol-2-one] registered a melting point of 257 °C. This compound came in with an EC50 in data set [1] of 4 µM. With `COc1ccc(C(=O)C2=C(O)C(=O)N(c3nnc(C)s3)C2c2ccc(C(C)(C)C)cc2)cc1` (centres unmarked) [Example 3], the EC50 in data set [1] worked out at 7 µM; in data set [2], 15 µM. In turn, `COc1ccc(C(=O)C2=C(O)C(=O)N(c3nnc(C)s3)C2c2ccc(OC(F)(F)F)cc2)cc1` (centres unmarked) [Example 20, 3-hydroxy-4-(4-methoxy-benzoyl)-1-(5-methyl-[1,3,4]thiadiazol-2-yl)-5-(4-trifluoromethoxy-phenyl)-1,5-dihydro-pyrrol-2-one] gave a melting point of 245 to 247 °C. Further, in data set [1], it took 4 µM to reach a half-maximal effect (EC50). Take `Cc1ccc(C(=O)C2=C(O)C(=O)N(c3ncc(S(=O)(=O)c4ccc([N+](=O)[O-])cc4)s3)C2c2cccc(Cl)c2)cc1` (centres unmarked) [Example 51]: the half-maximal effective concentration (EC50) was 7 µM in data set [1] and 10 µM in data set [2]. Take `Cc1cnc(N2C(=O)C(O)=C(C(=O)c3ccc(C(C)C)cc3)C2c2ccc(C(F)(F)F)cc2)s1` (centres unmarked) [Example 129, 3-hydroxy-4-(4-isopropyl-benzoyl)-1-(5-methyl-thiazol-2-yl)-5-(4-trifluoromethyl-phenyl)-1,5-dihydro-pyrrol-2-one]: the EC50 in data set [1] and in data set [2] was < 10 µM throughout.

In turn, `COc1ccc(C(=O)C2=C(O)C(=O)N(c3nncs3)C2c2ccc(C(C)(C)C)cc2)cc1` (centres unmarked) [Example 18, 5-(4-tert-butyl-phenyl)-3-hydroxy-4-(4-methoxy-benzoyl)-1-[1,3,4]thiadiazol-2-yl-1,5-dihydro-pyrrol-2-one] registered a melting point of 289 to 291 °C. The compound also registered an EC50 in data set [1] of 7 µM. The corresponding values for `COC(=O)c1ccc(C2C(C(=O)c3ccc(C)cc3)=C(O)C(=O)N2c2ncc(S(=O)(=O)c3ccc([N+](=O)[O-])cc3)s2)cc1` (centres unmarked) [Example 4, 4-{4-hydroxy-3-(4-methyl-benzoyl)-1-[5-(4-nitro-benzenesulfonyl)-thiazol-2-yl]-5-oxo-2,5-dihydro-1H-pyrrol-2-yl}-benzoic acid methyl ester] are 249 to 251 °C and 10 µM. As for `CC(C)(C)c1ccc(C2C(C(=O)c3ccc(Cl)cc3)=C(O)C(=O)N2c2ncc(S(=O)(=O)c3ccc([N+](=O)[O-])cc3)s2)cc1` (centres unmarked) [Example 40], the EC50 in data set [1] was determined as 5 µM; in data set [2] it was 28 µM. Regarding `COc1ccc(C(=O)C2=C(O)C(=O)N(c3nnc(C(F)(F)F)s3)C2c2ccc(C(C)(C)C)cc2)cc1` (centres unmarked) [Example 26, 5-(4-tert-butyl-phenyl)-3-hydroxy-4-(4-methoxy-benzoyl)-1-(5-trifluoromethyl-[1,3,4]thiadiazol-2-yl)-1,5-dihydro-pyrrol-2-one], the melting point stood at 271 °C. Further, it took 14 µM to reach a half-maximal effect in data set [1] (EC50).
